Experimental data published in patent US9499493B2, “2,4-pyrimidinediamine compounds and their uses” (Rigel Pharmaceuticals, Inc., priority 2002, dated 2016).

Columns and labels:
[1] = tested on: cultured human mast cells (CHMC); assay: CHMC low cell density IgE activation: tryptase assay; assay type: cell-based; settings: anti-IgE
Outline: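 Degranulation was triggered with anti-IgE for 30 minutes at 37° C in cultured human mast cells seeded at low density (1000-1500 cells/well, chosen by donor) after a 1 hr equilibration in MT buffer. Released tryptase in cleared supernatant was quantified with a tryptase substrate at room temperature for 30 minutes.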

[2] = tested on: cultured human mast cells (CHMC); assay: CHMC low cell density ionomycin activation: tryptase assay; assay type: cell-based
[3] = tested on: cultured human mast cells (CHMC); assay: CHMC high cell density IgE activation: hexos (hexosaminidase) release; assay type: cell-based; settings: anti-IgE activation
Experimental: (§1) Inhibition of degranulation was measured at both low and high cell density by quantifying the release of the granule specific factors tryptase, histamine and hexosaminidase. Inhibition of release and/or synthesis of lipid mediators was assessed by measuring the release of leukotriene LTC4 and inhibition of release and/or synthesis of cytokines was monitored by quantifying TNF-α, IL-6 and IL-13. Tryptase and hexosaminidase were quantified using fluorogenic substrates as described in their respective examples. […] The protocols of the various assays are provided below.
(§2) After sensitizing, cells are counted, pelleted (1000 rpm, 5-10 minutes), and resuspended at 1-2×10^6 cells/ml in MT buffer. Add 100 ul of cell suspension to each well and 100 ul of compound dilutions. The final vehicle concentration is 0.5% DMSO. Incubate at 37° C. (5% CO2) for 1 hour. After 1 hour of compound treatment, stimulate cells with 6× anti-IgE. Mix wells with the cells and allow plates to incubate at 37° C. (5% CO2) for one hour. After 1 hour incubation, pellet cells (10 minutes, 1000 RPM) and collect 200 ul per well of the supernatant, being careful not to disturb pellet. Place the supernatant plate on ice. During the 7-hour step (see next) perform tryptase assay on supernatant that had been diluted 1:500. Resuspend cell pellet in 240 ul of CM media containing 0.5% DMSO and corresponding concentration of compound. Incubate CHMC cells for 7 hours at 37° C. (5% CO2). After incubation, pellet cells (1000 RPM, 10 minutes) and collect 225 ul per well and place in −80° C. until ready to perform ELISAS. ELISAS are performed on appropriately diluted samples (determined empirically for each donor cell population so that the sample measurement falls within the standard curve) following the supplier's instructions.

[4] = tested on: cultured human mast cells (CHMC); assay: CHMC high cell density IgE activation: tryptase; assay type: cell-based; settings: anti-IgE activation
Experimental: as §2

[5] = tested on: cultured human mast cells (CHMC); assay: CHMC high cell density IgE activation: histamine; assay type: cell-based; settings: anti-IgE activation
Experimental: as §1, §2

[6] = tested on: cultured human mast cells (CHMC); assay: CHMC high cell density IgE activation: LTC4; assay type: cell-based; settings: anti-IgE activation
Experimental: as §1, §2

[7] = tested on: cultured human mast cells (CHMC); assay: CHMC high cell density IgE activation: TNFalpha; assay type: cell-based; settings: anti-IgE activation; read-out: CHMC high density TNF-alpha
Experimental: as §1, §2

[8] = tested on: cultured human mast cells (CHMC); assay: CHMC high cell density IgE activation: IL-13; assay type: cell-based; settings: anti-IgE activation
Experimental: as §1, §2

[9] = tested on: FcγRI-mediated degranulation; assay: FcγRI receptor-mediated degranulation (activation with anti-human IgG Fab fragment); assay type: cell-based; settings: cells not primed with IgE, activated with rabbit anti-human IgG Fab fragment
[10] = Pharmacokinetics / oral bioavailability in rats; assay type: in vivo; settings: rats
Experimental: Over 50 2,4-pyrimidinediamine compounds of the invention were tested for oral bioavailability. For the study, compounds were dissolved in various vehicles (e.g. PEG 400 solution and CMC suspension) for intravenous and oral dosing in the rats. Following administration of the drug, plasma samples were obtained and extracted. The plasma concentrations of the compounds were determined by high performance liquid chromatography/tandem mass spectrometry (LC/MS/MS) methods. Pharmacokinetic analyses were performed based on the plasma concentration data. The pharmacokinetic parameters of interest include Clearance (CL), Volume of distribution at steady-state (Vss), terminal half-life (t1/2), and oral bioavailability (% F).

[11] = tested on: cultured human mast cells (CHMC); assay: CHMC low cell density IgE activation: LTC4 assay; assay type: cell-based; settings: anti-IgE
Experimental: Pellet CHMC cells (980 rpm, 10 min) and resuspend in pre-warmed MT. Add 65 ul of cells to each 96-well plate. Depending on the degranulation activity for each particular CHMC donor, load 1000-1500 cells/well. Mix four times followed by a 1 hr incubation at 37° C. […] Stimulate cells by adding 25 ul of 6× anti-IgE solution to the appropriate plates. Add 25 ul MT to un-stimulated control wells. Mix twice following addition of the anti-IgE. Incubate at 37° C. for 30 minutes. […] Spin plates at 1000 rpm for 10 min to pellet cells. Transfer 25 ul of supernatant to a 96-well black bottom plate and add 100 ul of freshly diluted tryptase substrate solution to each well. Incubate plates at room temperature for 30 min.
Leukotriene C4 (LTC4) is also quantified using an ELISA kit on appropriately diluted supernatant samples (determined empirically for each donor cell population so that the sample measurement falls within the standard curve) following the supplier's instructions.

Jurkat cells = assay: Jurkat toxicity, Cell Titer Glo assay; assay type: cell-based; settings: 18 hours incubation
Experimental: Seed 50 μl cells (1×10^6/ml) into each well containing 50 μl compound. […] Shake plates for 1 minute to mix cells and compound. Incubate plates at 37° C. […] Next day, harvest 50 μl cells from each well, add to 50 μl Cell Titer Glo reagent ([…]). Shake plates for 1 minute. Read on luminometer.

[12] = tested on: bone marrow derived mast cells (BMMC); assay: BMMC high cell density IgE activation: hexosaminidase; assay type: cell-based, mouse; settings: anti-IgE, second part of TABLE 1, read-out: BMMC anti-IgE hexos. IC50
Experimental: (§3) After sensitizing, cells are counted, pelleted (1000 rpm, 5-10 minutes), and resuspended at 1-3×10^6 cells/ml in MT buffer. Add 100 ul of cell suspension to each well and 100 ul of compound dilutions. The final vehicle concentration is 0.5% DMSO. Incubate at 37° C. (5% CO2) for 1 hour. After 1 hour of compound treatment, stimulate cells with 6× stimulus (60 ng/ml DNP-BSA). Mix wells with the cells and allow plates to incubate at 37° C. (5% CO2) for one hour. After 1 hour incubation, pellet cells (10 minutes, 1000 RPM) and collect 200 ul per well of the supernatant, being careful not to disturb pellet, and transfer to a clean tube or 96-well plate. Place the supernatant plate on ice. During the 4-5 hour step (see next) perform the hexosiminidase assay. Resuspend cell pellet in 240 ul WEI-conditioned media containing 0.5% DMSO and corresponding concentration of compound. Incubate BMMC cells for 4-5 hours at 37° C. (5% CO2). After incubation, pellet cells (1000 RPM, 10 minutes) and collect 225 ul per well and place in −80° C. until ready to perform ELISAS. ELISAS are performed on appropriately diluted samples (determined empirically for each donor cell population so that the sample measurement falls within the standard curve) following the supplier's instructions.
Hexosaminidase assay: In a solid black 96-well assay plate, add 50 uL hexosaminidase substrate (4-methylumbelliferyl-N-acetyl-(3-D-glucosaminide; 2 mM) to each well. Add 50 uL of BMMC cell supernatant (see above) to the hexoseaminidase substrate, place at 37° C. for 30 minutes and read the plate at 5, 10, 15, and 30 minutes on a spectrophotometer.

[13] = tested on: bone marrow derived mast cells (BMMC); assay: BMMC high cell density IgE activation: histamine; assay type: cell-based, mouse; settings: anti-IgE, second part of TABLE 1
Experimental: as §1, §3

[14] = tested on: bone marrow derived mast cells (BMMC); assay: BMMC high cell density IgE activation: LTC4; assay type: cell-based, mouse; settings: anti-IgE, second part of TABLE 1
Experimental: as §1, §3

[15] = tested on: bone marrow derived mast cells (BMMC); assay: BMMC high cell density IgE activation: TNFalpha; assay type: cell-based, mouse; settings: anti-IgE, second part of TABLE 1, read-out: BMMC anti-IgE TNF-alpha IC50
Experimental: as §1, §3

[16] = tested on: bone marrow derived mast cells (BMMC); assay: BMMC high cell density IgE activation: IL-6; assay type: cell-based, mouse; settings: anti-IgE, second part of TABLE 1
Experimental: as §1, §3

Structure (SMILES) | IC50 [1] [nM] | IC50 [2] [nM] | IC50 [3] [nM] | IC50 [4] [nM] | IC50 [5] [nM] | IC50 [6] [nM] | IC50 [7] [nM] | IC50 [8] [nM] | oral bioavailabilities and half-lives (in words) [10] | other results
O=C(c1cc2cc(Nc3ncc(F)c(Nc4cccc(O)c4)n3)ccc2o1)N1CCOCC1 [R926488, 5-Fluoro-N4-(3-hydroxyphenyl)-N2-[2-(N-morpholino)carbonylbenzofuran-5-yl]-2,4-pyrimidinediamine] | 331 | > 10000 | 521 | 623 | 792 | 201 | 2440 | 1010 | – | IC50 [11]: 752 nM
N#CCOc1ccc(Nc2nc(Nc3cccc(O)c3)ncc2F)cc1 [R945071, N4-[4-(Cyanomethyleneoxy)phenyl]-5-fluoro-N2-(3-hydroxyphenyl)-2,4-pyrimidinediamine] | – | – | < 1100 | < 1100 | < 1100 | < 1100 | < 1100 | < 1100 | – | –
Fc1cnc(Nc2ccc3cn[nH]c3c2)nc1Nc1ccc(Cl)c(Cl)c1 [R935372, N4-(3,4-Dichlorophenyl)-5-fluoro-N2-(indazoline-6-yl)-2,4-pyrimidinediamine] | 60 | > 10000 | – | – | – | – | – | – | good | FcγRI-mediated degranulation (in words) [9]: inhibit FcγRI-mediated degranulation
CNCCOc1cccc(Nc2ncc(F)c(Nc3ccc4c(c3)OCCO4)n2)c1 [R926510, N4-(3,4-Ethylenedioxyphenyl)-5-fluoro-N2-[3-[2-(N-methylamino)ethyleneoxy]phenyl]-2,4-pyrimidinediamine] | 440 | > 10000 | 921 | 1120 | 1670 | 417 | – | 686 | – | IC50 (Jurkat cells): 2770 nM
COc1cc(Nc2ncc(F)c(Nc3cccc(O)c3)n2)cc(OC)c1 [R926780, N2-(3.5-Dimethoxyphenyl)-5-fluoro-N4-(3-hydroxyphenyl)-2,4-pyrimidinediamine] | – | > 10000 | – | – | – | – | – | – | – | IC50 [12]: < 220 nM; IC50 [13]: < 220 nM; IC50 [14]: 461 nM; IC50 [15]: < 220 nM; IC50 [16]: < 220 nM; IC50 (Jurkat cells): > 5000 nM
OCCCn1ncc2cc(Nc3ncc(F)c(Nc4ccc(Cl)c(Cl)c4)n3)ccc21 [R935391] | – | – | – | – | – | – | – | – | good | –
O=C(COc1cccc(Nc2ncc(F)c(Nc3ccc4c(c3)OCCO4)n2)c1)NCCO [R926505, N4-(3,4-Ethylenedioxyphenyl)-5-fluoro-N2-[3-(2-hydroxyethylamino)carbonylmethyleneoxyphenyl]-2,4-pyrimidinediamine] | 145 | > 10000 | – | – | – | – | – | – | – | IC50 [12]: < 220 nM; IC50 [13]: < 220 nM; IC50 [14]: < 220 nM; IC50 [15]: < 220 nM; IC50 [16]: < 220 nM; IC50 (Jurkat cells): 4200 nM

Further lines, with some results ahead:

IC50 [1] [nM] | IC50 [2] [nM] | IC50 [3] [nM] | IC50 [4] [nM] | IC50 [5] [nM] | IC50 [6] [nM] | IC50 [7] [nM] | IC50 [8] [nM] | oral bioavailabilities and half-lives (in words) [10] | Structure (SMILES) | other results
760 | > 10000 | < 1100 | < 1100 | 1440 | < 1100 | < 1100 | 1290 | – | Oc1cccc(Nc2nc(Nc3ccc(OCCN4CCOCC4)cc3)ncc2F)c1 [R926699, 5-Fluoro-N4-(3-hydroxyphenyl)-N2-[4-[2-(N-morpholino)ethyleneoxy]phenyl]-2,4-pyrimidinediamine] | –
– | – | – | – | – | – | – | – | good | COc1cc(Nc2ncc(F)c(Nc3ccc4c(c3)NC(=O)C(C)(C)O4)n2)cc(OC)c1 [R927050] | FcγRI-mediated degranulation (in words) [9]: inhibit FcγRI-mediated degranulation
136 | > 10000 | – | – | – | – | – | – | good | Cn1ncc2cc(Nc3ncc(F)c(Nc4ccc5c(c4)OCCO5)n3)ccc21 [R935193, N4-(3,4-Ethylenedioxyphenyl)-5-fluoro-N2-(1-methyl-indazoline-5-yl)-2,4-pyrimidinediamine] | IC50 [12]: 80 nM; IC50 [13]: 48 nM; IC50 [16]: 37 nM
– | 4000 | – | – | – | – | – | – | good | CC1(C)Oc2ccc(Nc3ncc(F)c(Nc4ccc5c(c4)NC(=O)C(C)(C)O5)n3)cc2NC1=O [R940350, N2,N4-[(2,2-Dimethyl-4H-benzo[1,4]oxazin-3-one)-6-yl]-5-fluoro-2,4-pyrimidinediamine] | FcγRI-mediated degranulation (in words) [9]: inhibit FcγRI-mediated degranulation
370 | > 10000 | 357 | 458 | 439 | 92.9 | 1080 | 291 | – | N#CCOc1ccc(Nc2ncc(F)c(Nc3ccc(OCC#N)cc3)n2)cc1 [R945032, N2,N4-Bis[4-(cyanomethyleneoxy)phenyl]-5-fluoro-2,4-pyrimidinediamine] | –
